≈ marks a conversion by molar mass, not a printed value. Where two headings read alike, the source gives them in different places.
Columns and labels:
P. aeruginosa DSM1117 = assay: MIC, standard microdilution assay, growing P. aeruginosa; format: cell-based, Pseudomonas aeruginosa; details: P. aeruginosa; for MIC: Pseudomonas aeruginosa, DSM1117
Summary of the method: (§1)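 Each strain was exposed to serially diluted compound in broth, in triplicate. The media were TSB for Shigella; CA-MHB at pH 7.4 (HEPES 40 mM) for S. aureus, P. aeruginosa and UPEC; and, for UPEC only, low-pH LPM (pH 5.5, 30 mM MES).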

S. aureus DSM2569 = assay: MIC, standard microdilution assay, growing S. aureus; format: cell-based, Staphylococcus aureus; details: Staphylococcus aureus, DSM2569; S. aureus; CA-MHB pH 7.4; read-out: MIC (μM) CA-MHB
Summary of the method: as §1

non-growing UPEC CFT073 = assay: Dilution-regrowth assay (screen, hit validation, dose-response) on stationary-phase UPEC; format: cell-based, Escherichia coli; details: Escherichia coli, E. coli, regrowth delay of non-growing bacteria, 24 h treatment, OD600 6 h after 2500-fold dilution, read-out: EC50
Summary of the method: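 Regrowth (OD600 after 6 h, 37 °C) of diluted non-growing CFT073, following 24 h compound treatment of 24 h stationary cultures, defines activity relative to untreated control. Screen at 20 µM, validation at 20, 10, 5 µM (duplicates), dose–response in three biological replicates fitted by five-parameter logistic.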

S. flexneri 5a M90T = assay: MIC in tryptic soy broth, S. flexneri; format: cell-based, Shigella flexneri; details: Shigella flexneri, 5AM90T, read-out: MIC (μM) TSB
Summary of the method: as §1

E. coli CFT073 (UPEC) = assay: MIC, standard microdilution assay, growing UPEC; format: cell-based, Escherichia coli; details: for MIC: Escherichia coli
Summary of the method: as §1

[1] = test system: non-growing P. aeruginosa DSM1117; assay: Dilution-regrowth assay (OD600, start-growth-time) on stationary-phase P. aeruginosa; format: cell-based, Pseudomonas aeruginosa; details: Pseudomonas aeruginosa, DSM1117; P. aeruginosa; regrowth delay of non-growing bacteria, 1:4 CA-MHB pH 7.4, 24 h treatment, OD600 8 h after dilution; read-out: EC50
Summary of the method: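 Stationary-phase cultures grown 24 h at 37 °C, 200 rpm, in 1:4 CA-MHB with 40 mM HEPES (pH 7.4), treated 24 h; preliminary compounds at 20 μM, 4 replicates. Regrowth OD600 read every 20 min at 37 °C; start-growth-time is when OD600 exceeds 0.12.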

[2] = 1:4 diluted CA-MHB pH 7.4, read-out: MIC (μM) 1:4 CA-MHB
[3] = CA-MHB pH 7.4, read-out: MIC (μM) CA-MHB
[4] = E. coli, pH 7.4, CA-MHB, read-out: MIC (μM) CA-MHB
[5] = E. coli, LPM pH 5.5, read-out: MIC

Compound	MIC (μM) CA-MHB +PAβN (P. aeruginosa DSM1117; CA-MHB with 10 μg/ml PaβN) [µM]	MIC (P. aeruginosa DSM1117; [2]) [µM]	MIC (P. aeruginosa DSM1117; [3]) [µM]	MIC (S. aureus DSM2569) [µM]	EC50 (non-growing UPEC CFT073; pH 7.4, 1:4 CA-MHB) [nM]	MIC (S. flexneri 5a M90T) [µM]	MIC (μM) CA-MHB +PAβN (E. coli CFT073 (UPEC); E. coli, pH 7.4, CA-MHB with 10 μg/ml efflux pump inhibitor PaβN) [µM]	MIC (E. coli CFT073 (UPEC); E. coli, pH 7.4, 1:4 diluted CA-MHB, read-out: MIC (μM) 1:4 CA-MHB) [µM]	MIC (E. coli CFT073 (UPEC); [4]) [µM]	EC50 [1] [nM]	EC50 (non-growing UPEC CFT073; LPM pH 5.5) [nM]	MIC (E. coli CFT073 (UPEC); [5]) [µM]	increase of MIC in diluted CA-MHB versus CA-MHB (P. aeruginosa DSM1117)	MIC (E. coli CFT073 (UPEC); pH 5.5) [µM]
CC[C@H]1OC(=O)[C@@](C)(F)C(=O)[C@H](C)[C@@H](O[C@@H]2O[C@H](C)C[C@H](N(C)C)[C@H]2O)[C@](C)(OC)C[C@@H](C)C(=O)[C@H](C)[C@H]2N(CCCCn3cc(-c4cccc(N)c4)nn3)C(=O)O[C@]12C [Solithromycin]	>80	80 (≈ 67.6 µg/mL)	80 (≈ 67.6 µg/mL)	0.05 (≈ 0.0423 µg/mL)	288	8 (≈ 6.76 µg/mL)	4 (≈ 3.38 µg/mL)	10 (≈ 8.45 µg/mL)	8 (≈ 6.76 µg/mL)	158				
C[C@@H]1CN(c2c(F)c(N)c3c(=O)c(C(=O)O)cn(C4CC4)c3c2F)C[C@H](C)N1 [Sparfloxacin]		2 (≈ 0.785 µg/mL)	2 (≈ 0.785 µg/mL)	0.25 (≈ 0.0981 µg/mL)	6330	0.0312 (≈ 0.0123 µg/mL)			0.025 (≈ 0.00981 µg/mL)	381				
NC1CCN(c2nc3c(cc2F)c(=O)c(C(=O)O)cn3-c2ccc(F)cc2F)C1 (centres unmarked) [Tosufloxacin]			1 (≈ 0.404 µg/mL)	0.25 (≈ 0.101 µg/mL)	753	0.0156 (≈ 0.00632 µg/mL)			0.05 (≈ 0.0202 µg/mL)	237	10300	0.125 (≈ 0.0505 µg/mL)		
N[C@@H]1[C@H]2CN(c3nc4c(cc3F)c(=O)c(C(=O)O)cn4-c3ccc(F)cc3F)C[C@@H]12 [Trovafloxacin]		8 (≈ 3.33 µg/mL)	2 (≈ 0.833 µg/mL)	0.125 (≈ 0.052 µg/mL)	1250	0.0625 (≈ 0.026 µg/mL)			0.4 (≈ 0.167 µg/mL)	1020	5180		four	0.0625 (≈ 0.026 µg/mL)
CC1Sc2c(C(=O)O)c(=O)c3cc(F)c(N4CCNCC4)cc3n21 (centres unmarked) [Ulifloxacin]		0.5 (≈ 0.175 µg/mL)	0.5 (≈ 0.175 µg/mL)	1 (≈ 0.349 µg/mL)	460	0.0312 (≈ 0.0109 µg/mL)			0.025 (≈ 0.00873 µg/mL)	82	8780	0.125 (≈ 0.0437 µg/mL)		

Source: publication PMC11992225, “Antibacterial compounds against non-growing and intracellular bacteria” (npj Antimicrobials and Resistance, 2025)
